Test results taken from PubChem BioAssay (NCI).
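Compound exposure: 48 hours, 5 concentrations, 96-well plates. Here, GI50 denotes the concentration required for 50% inhibition of growth. TGI: concentration producing complete growth inhibition.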

Tests used:
Experiment in all cases: NCI tumour cell line growth inhibition, 48 h
HS 578T breast = tested on: HS 578T breast
KM12 colon = tested on: KM12 colon
NCI-H226 lung = tested on: NCI-H226 lung
SNB-19 CNS = tested on: SNB-19 CNS
SK-MEL-5 melanoma = tested on: SK-MEL-5 melanoma
IGROV1 ovarian = tested on: IGROV1 ovarian
ACHN renal = tested on: ACHN renal
A549 NSCLC = tested on: A549 NSCLC
MDA-MB-468 breast = tested on: MDA-MB-468 breast
HT29 colon = tested on: HT29 colon
SK-OV-3 ovarian = tested on: SK-OV-3 ovarian
M14 melanoma = tested on: M14 melanoma
BT-549 breast = tested on: BT-549 breast
HCT-116 colon = tested on: HCT-116 colon
SR leukemia = tested on: SR leukemia
UACC-62 melanoma = tested on: UACC-62 melanoma
UO-31 renal = tested on: UO-31 renal
SNB-75 CNS = tested on: SNB-75 CNS
SF-295 CNS = tested on: SF-295 CNS
RPMI-8226 leukemia = tested on: RPMI-8226 leukemia
TK-10 renal = tested on: TK-10 renal
CAKI-1 renal = tested on: CAKI-1 renal
RXF 393 renal = tested on: RXF 393 renal
MALME-3M melanoma = tested on: MALME-3M melanoma
SF-268 CNS = tested on: SF-268 CNS
HCT-15 colon = tested on: HCT-15 colon
SF-539 CNS = tested on: SF-539 CNS
CCRF-CEM leukemia = tested on: CCRF-CEM leukemia
T-47D breast = tested on: T-47D breast
NCI-H460 lung = tested on: NCI-H460 lung
OVCAR-5 ovarian = tested on: OVCAR-5 ovarian
SK-MEL-28 melanoma = tested on: SK-MEL-28 melanoma
SN12C renal = tested on: SN12C renal
SW-620 colon = tested on: SW-620 colon
HOP-62 NSCLC = tested on: HOP-62 NSCLC
SK-MEL-2 melanoma = tested on: SK-MEL-2 melanoma
UACC-257 melanoma = tested on: UACC-257 melanoma
A498 renal = tested on: A498 renal
NCI-H522 lung = tested on: NCI-H522 lung
MDA-MB-435 = tested on: MDA-MB-435
HCC-2998 colon = tested on: HCC-2998 colon
MOLT-4 leukemia = tested on: MOLT-4 leukemia
LOX IMVI melanoma = tested on: LOX IMVI melanoma
MDA-MB-231 breast = tested on: MDA-MB-231 breast
OVCAR-8 ovarian = tested on: OVCAR-8 ovarian
NCI-H23 lung = tested on: NCI-H23 lung
COLO 205 colon = tested on: COLO 205 colon
OVCAR-4 ovarian = tested on: OVCAR-4 ovarian
OVCAR-3 ovarian = tested on: OVCAR-3 ovarian
786-0 renal = tested on: 786-0 renal
K-562 leukemia = tested on: K-562 leukemia
DU-145 prostate = tested on: DU-145 prostate
MCF7 breast = tested on: MCF7 breast
HL-60(TB) leukemia = tested on: HL-60(TB) leukemia

## Cn1cc(-c2cc(N)n3nc(-c4c[nH]c5ccc(Br)cc45)cc3n2)c2cc(Br)cnc21
HS 578T breast
  GI50: 2290 nM
  TGI: 5360 nM
KM12 colon
  GI50: 1590 nM
  TGI: 3160 nM
NCI-H226 lung
  GI50: 2510 nM
  TGI: 7340 nM
SNB-19 CNS
  GI50: 2150 nM
  TGI: 4760 nM
SK-MEL-5 melanoma
  GI50: 2080 nM
  TGI: 4490 nM
IGROV1 ovarian
  GI50: 1960 nM
  TGI: 4110 nM
ACHN renal
  GI50: 1660 nM
  TGI: 3120 nM
A549 NSCLC
  GI50: 1840 nM
  TGI: 3870 nM
MDA-MB-468 breast
  GI50: 1360 nM
  TGI: 2770 nM
HT29 colon
  GI50: 1970 nM
  TGI: 3840 nM
SK-OV-3 ovarian
  GI50: 2540 nM
  TGI: 7270 nM
M14 melanoma
  GI50: 1690 nM
  TGI: 3550 nM
BT-549 breast
  GI50: 2190 nM
  TGI: 4360 nM
HCT-116 colon
  GI50: 1910 nM
  TGI: 4250 nM
SR leukemia
  GI50: 1930 nM
  TGI: 5870 nM
UACC-62 melanoma
  GI50: 1600 nM
  TGI: 3070 nM
UO-31 renal
  GI50: 1620 nM
  TGI: 3360 nM
SNB-75 CNS
  GI50: 1460 nM
  TGI: 3240 nM
SF-295 CNS
  GI50: 1880 nM
  TGI: 4290 nM
RPMI-8226 leukemia
  GI50: 2230 nM
  TGI: 7800 nM
TK-10 renal
  GI50: 1780 nM
  TGI: 3990 nM
CAKI-1 renal
  GI50: 1490 nM
  TGI: 3770 nM
RXF 393 renal
  GI50: 1890 nM
  TGI: 3690 nM
MALME-3M melanoma
  GI50: 1890 nM
  TGI: 3520 nM
SF-268 CNS
  GI50: 2250 nM
  TGI: 5710 nM
HCT-15 colon
  GI50: 1690 nM
  TGI: 3800 nM
SF-539 CNS
  GI50: 1640 nM
  TGI: 3160 nM
CCRF-CEM leukemia
  GI50: 1610 nM
  TGI: 4260 nM
T-47D breast
  GI50: 1800 nM
  TGI: 4330 nM
NCI-H460 lung
  GI50: 1960 nM
  TGI: 4030 nM
OVCAR-5 ovarian
  GI50: 2030 nM
  TGI: 4440 nM
SK-MEL-28 melanoma
  GI50: 1820 nM
  TGI: 3640 nM
SN12C renal
  GI50: 1720 nM
  TGI: 3360 nM
SW-620 colon
  GI50: 1880 nM
  TGI: 3740 nM
HOP-62 NSCLC
  GI50: 1680 nM
  TGI: 3340 nM
SK-MEL-2 melanoma
  GI50: 1790 nM
  TGI: 3740 nM
UACC-257 melanoma
  GI50: 2000 nM
  TGI: 4310 nM
A498 renal
  GI50: 1550 nM
  TGI: 3420 nM
NCI-H522 lung
  GI50: 1700 nM
  TGI: 3560 nM
MDA-MB-435
  GI50: 1710 nM
  TGI: 3210 nM
HCC-2998 colon
  GI50: 1760 nM
  TGI: 3240 nM
MOLT-4 leukemia
  GI50: 2110 nM
  TGI: 10600 nM
LOX IMVI melanoma
  GI50: 1700 nM
  TGI: 3290 nM
MDA-MB-231 breast
  GI50: 1780 nM
  TGI: 3540 nM
OVCAR-8 ovarian
  GI50: 2010 nM
  TGI: 4220 nM
NCI-H23 lung
  GI50: 1760 nM
  TGI: 3600 nM
COLO 205 colon
  GI50: 1820 nM
  TGI: 3360 nM
OVCAR-4 ovarian
  GI50: 1950 nM
  TGI: 3930 nM
OVCAR-3 ovarian
  GI50: 1670 nM
  TGI: 3130 nM
786-0 renal
  GI50: 1640 nM
  TGI: 3130 nM
K-562 leukemia
  GI50: 1890 nM
  TGI: 5880 nM
DU-145 prostate
  GI50: 1820 nM
  TGI: 3530 nM
MCF7 breast
  GI50: 1800 nM
  TGI: 3630 nM
HL-60(TB) leukemia
  GI50: 1790 nM
  TGI: 4330 nM
